Data published in publication PMC6607443, “Systematic identification of recognition motifs for the hub protein LC8” (Life Science Alliance, 2019).
Like-named read-outs stand apart in the source and are kept apart here. Where no end group is shown, it is not given here.

Legend:
LC8 [1] = biological target: LC8 (UniProt P63167); assay: ITC of synthetic peptides binding to LC8; conditions: for Binder?: 500 μM peptide into 25 μM LC8; for binding to LC8 via ITC (in words): strong = Kd fit, weak = heat but not fit (>25 μM)
LC8, sequence (P63167 whole entry, the tested form may be a part): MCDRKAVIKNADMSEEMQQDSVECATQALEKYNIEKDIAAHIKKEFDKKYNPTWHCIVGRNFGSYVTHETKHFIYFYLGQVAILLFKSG

LC8 [2] = biological target: LC8 (UniProt P63167); conditions: rotavirus A VP4 residues 644–651; ref Martínez-Moreno et al, 2003; cited from earlier work
Text: We scanned Homo sapiens and viral proteomes for potential LC8-binding sequences based upon: (1) their propensity for disorder, (2) their sequence conservation across related species, and (3) the sequence’s similarity to known motifs. This final parameter used a PSSM based on the relative enrichment or depletion of each residue in a potential sequence, weighted by amino acid frequency. Enrichment and depletion PSSMs were populated using sequences that interact with LC8, verified either by mutagenesis or in vitro assays. ITC experiments were performed on 19 synthetic peptides with high-scoring s ...

[3] = Table 1, peptides synthesized from phage display hits, ITC, 25°C, 50 mM sodium phosphate, 50 mM NaCl, 1 mM sodium azide, 5 mM β-mercaptoethanol, pH 7.5
[4] = Table 2, peptides synthesized from favorable sequence comparisons (PSSM), ITC, 25°C, pH 7.5
[5] = Fig 3B, ITC, 25°C, 50 mM NaCl, 50 mM NaPO4, 1 mM NaN3, pH 7.5, single-site model, average of two to three independent experiments, read-out: Kd

## AASLIQKMLQTDPTAR [PLK1, synthetic peptide from PLK1, UniProt P53350]
LC8 [1]; [3]
  Binder?: N

## AKESCNMETQTSST [OFD1, synthetic peptide from OFD1, UniProt O75665]
LC8 [1]; [3]
  Binder?: Y

## AQPKQKLDTSIQTEYP [MT/HEL (TMV), synthetic peptide from MT/HEL (TMV), UniProt P03586]
LC8 [1]; [4]
  Binder?: N

## CLKETLQITQTEVQ [NFYC, synthetic peptide from NFYC, UniProt Q13952]
LC8 [1]; [3]
  Binder?: N

## DDHSGNAQVTQTKFD [DDX1, synthetic peptide from DDX1, UniProt Q92499]
LC8 [1]; [3]
  Binder?: N

## DDNHWTRSTQTTRE [MUC4]
LC8 [1]; [3]
  Binder?: Y

## DDPMYSSQTQTYGD [KCNQ2, synthetic peptide from KCNQ2, UniProt O43526]
LC8 [1]; [3]
  Binder?: N

## DDSGGNATTQTTSD [ROR1, synthetic peptide from ROR1, UniProt Q01973]
LC8 [1]; [3]
  Binder?: Weak^a (Weak binders are those with affinities >25 μM)

## DERLMCTGSQTFDD [EFL1, synthetic peptide from EFL1, UniProt Q7Z2Z2]
LC8 [1]; [3]
  Binder?: N

## DFTPAFADFGRQTPGG [EIF4G3, synthetic peptide from EIF4G3, UniProt O43432]
LC8 [1]; [4]
  Binder?: N

## EGYRGTANTTTAAYLA [MSTL1, synthetic peptide from MSTL1, UniProt Q2TV78]
LC8 [1]; [3]
  Binder?: N

## ESGDGNTGTQTNGL [POU2F1, synthetic peptide from POU2F1, UniProt P14859]
LC8 [1]; [3]
  Binder?: N

## GQGAALTTATQTTHLE [GP1BA, synthetic peptide from GP1BA, UniProt P07359]
LC8 [1]; [3]
  Binder?: Weak^a (Weak binders are those with affinities >25 μM)

## IDMSTQIG [rotavirus A VP4 residue position 644–651, site predicted and tested in a previous study]
LC8 [2]
  binding to LC8 (in words): did not bind LC8

## ISRMTQTP [RAVL, synthesized to validate previous data]
LC8 [1]; [5]
  Kd: 8 µM

## ITSYNSQGTQLTVE [KY, synthetic peptide from KY, UniProt Q8NBH2]
LC8 [1]; [3]
  Binder?: N

## KDGDTQTD [HTATSF1, peptide from HIV Tat-specific factor 1, UniProt O43719, predicted by LC8Pred]
LC8 [1]; ITC, 25°C, pH 7.5, single-site model, read-out: Kd
  Kd: 10 µM
LC8 [1]; ITC, 25°C, pH 7.5
  binding to LC8 via ITC (in words): “strong” binder

## KHSGRQLTLQHHMG [CUL3, synthetic peptide from CUL3, UniProt Q13618]
LC8 [1]; [3]
  Binder?: N

## KITFTKPSTQTTNT [EMSY, synthetic peptide from EMSY, UniProt Q7Z589]
LC8 [1]; [3]
  Binder?: N

## KPFMLDEEGDTQTEET [EIF2S2, synthetic peptide from EIF2S2, UniProt P20042]
LC8 [1]; [4]
  Binder?: N

## KSVAENGDTDTQTSMF [ZZZ3, synthetic peptide from ZZZ3, UniProt Q8IYH5]
LC8 [1]; [4]
  Binder?: N

## KTLTFSGSSQTVTP [QSER1, synthetic peptide from QSER1, UniProt Q2KHR3]
LC8 [1]; ITC, 25°C, pH 7.5
  binding to LC8 via ITC (in words): nonbinders
LC8 [1]; [3]
  Binder?: N

## LPRKVDTAAQTNSR [IRS1, synthetic peptide from IRS1, UniProt P35568]
LC8 [1]; [3]
  Binder?: N

## LQETLTTSSQANLS [PPP2R3A, synthetic peptide from PPP2R3A, UniProt Q06190]
LC8 [1]; [3]
  Binder?: N

## MDDIFTQCREGN [ILK, synthetic peptide from ILK, UniProt Q13418]
LC8 [1]; [4]
  Binder?: N

## NKVFAKLHHNTQTFQA [CCL25, synthetic peptide from CCL25, UniProt O15444]
LC8 [1]; [4]
  Binder?: N

## NQSFLRTPIQRTPH [SAV1, synthetic peptide from SAV1, UniProt Q9H4B6]
LC8 [1]; [3]
  Binder?: N

## PLQATISKSQTNPV [UBN2, synthetic peptide from UBN2, UniProt Q6ZU65]
LC8 [1]; [3]
  Binder?: N

## PRATAEFSTQTPSP [BSN^II]
LC8 [1]; pH 7.5
  Kd: 3.8 µM

## RAAALPEETRSSRR [ZNF469, synthetic peptide from ZNF469, UniProt Q96JG9]
LC8 [1]; [3]
  Binder?: N

## RGDGSDVSSQTPQT [ANKIB1, synthetic peptide from ANKIB1, UniProt Q9P2G1]
LC8 [1]; [3]
  Binder?: N

## RNSQTQTD [VP35(EBV), synthesized to validate previous data]
LC8 [1]; [5]
  Kd: 0.8 µM

## RSFVLPVESTQDVSSQ [CRYBG1, synthetic peptide from CRYBG1, UniProt Q9Y4K1]
LC8 [1]; [3]
  Binder?: N

## RTSETNTP [NIN, peptide from ninein, UniProt Q8N4C6, predicted by LC8Pred]
LC8 [1]; ITC, 25°C, pH 7.5
  binding to LC8 via ITC (in words): bound to LC8

## SFRHPGYSTQTHVN [KLK7, synthetic peptide from KLK7, UniProt P49862]
LC8 [1]; [3]
  Binder?: N

## SKTQQTFGSQTECT [TOGARAM1, synthetic peptide from TOGARAM1, UniProt Q9Y4F4]
LC8 [1]; ITC, 25°C, pH 7.5
  binding to LC8 via ITC (in words): weak binders
LC8 [1]; [3]
  Binder?: Weak^a (Weak binders are those with affinities >25 μM)

## SMATPSSSTQTSGT [MUC5B-3, synthetic peptide from MUC5B, UniProt Q9HC84, residues 2,673-2,686]
LC8 [1]; [3]
  Binder?: N

## SPSPTGLPTQTPGF [ARAP3, synthetic peptide from ARAP3, UniProt Q8WWN8]
LC8 [1]; [3]
  Binder?: Weak^a (Weak binders are those with affinities >25 μM)

## SSRSAFSPLQPNAS [DMRTA2, synthetic peptide from DMRTA2, UniProt Q96SC8]
LC8 [1]; [3]
  Binder?: N

## SSTEVQVE [OTOF, peptide from otoferlin, UniProt Q9HC10, predicted by LC8Pred]
LC8 [1]; ITC, 25°C, pH 7.5
  binding to LC8 via ITC (in words): bound to LC8

## STQTPSPAPASDMP [BSN-shift]
LC8 [1]; ITC, 25°C, pH 7.5
  binding to LC8 via ITC (in words): failed to demonstrate even weak binding to LC8
LC8 [1]; [3]
  Binder?: N

## TEAKDQCSTQTDFN [EPAS1, synthetic peptide from EPAS1, UniProt Q99814]
LC8 [1]; [3]
  Binder?: N

## TLQQPLELTASQLPAG [OTOG, synthetic peptide from OTOG, UniProt Q6ZRI0]
LC8 [1]; [3]
  Binder?: N

## TLVSTASGTQTVFP [SH3RF2, synthetic peptide from SH3RF2, UniProt Q8TEC5]
LC8 [1]; [3]
  Binder?: N

## TPTPTPTGTQTPTT [MUC2, synthetic peptide from MUC2, UniProt Q02817]
LC8 [1]; [3]
  Binder?: N

## TQDDYFKDKRVHHFRRS [DAZL]
LC8 [1]; [3]
  Binder?: N
LC8 [1]; [4]
  Binder?: N

## TTLPVLTSTATKST [MUC5B-1, synthetic peptide from MUC5B, UniProt Q9HC84, residues 3,049-3,062]
LC8 [1]; [3]
  Binder?: N

## VAQGTQTP [BSN^III, synthesized to validate previous data]
LC8 [1]; [5]
  Kd: 5.3 µM

## YELMASLDQPTQTVVM [EIF3C, synthetic peptide from EIF3C, UniProt Q99613]
LC8 [1]; [4]
  Binder?: N

## YGPDGEETETQTCPP [PRSS36, synthetic peptide from PRSS36, UniProt Q5K4E3]
LC8 [1]; [4]
  Binder?: N

## YGQIAPENGTQTPSP [ITGAX, synthetic peptide from ITGAX, UniProt P20702]
LC8 [1]; [4]
  Binder?: N

## YHHRILEAKSIQTSPT [FMN2, synthetic peptide from FMN2, UniProt Q9NZ56]
LC8 [1]; [4]
  Binder?: N

## YKIEIPTQCPSCGSK [DNLJ2 (phage T5), synthetic peptide from DNLJ2 (phage T5), UniProt Q5DMI6]
LC8 [1]; [4]
  Binder?: N
